Measurements from patent US8916686B2, “TDF-related compounds and analogs thereof” (Thrasos Innovation, Inc., priority 2004, dated 2014).

B1: BMP-7: bone morphogenetic protein-7 (OP-1, TDF-1); mature form of recombinant human BMP-7 used as positive control (protein)
chain: STGSKQRSQNRSKTPKNQEALRMANVAENSSSDQRQACKKHELYVSFRDLGWQDWIIAPEGYAAYYCEGECAFPLNSYMNATNHAIVQTLVHFINPETVPKPCCAPTQLNAISVLYFDDSSNVILKKYRNMVVRACGCH

What was measured:
[1] = test system: rat osteosarcoma (17/2.8) cells; assay: Rat osteosarcoma (ROS) cell-based alkaline phosphatase assay; settings: 0.02-200 uM, 2 days; relative to BMP-7 standard
Description: BMP interactions with Type I and Type II receptors can induce alkaline phosphatase activity, a marker for osteoblast activity, in ROS cells. An assay procedure as described earlier (Maliakal, J.C., Asahina, I., Hauschka, P. V., and Sampath, T. K. (1994) Growth factors 11, 227-234) was used to determine the biological activities of TDFRP compounds. In a typical experiment, rat osteosarcoma (17/2.8) cells are plated in 96 well plates (3.0×10^4 cells/well) and incubated overnight at 37 C in 5-6% CO2 incubator. The next day, healthy and confluent cells are treated with increasing concentrations of BMP-7 standard (1-10,000 ng/ml) served as positive control or TDFRP compounds (0.02-200 uM) prepared in medium containing 1% FBS and incubated for 2 days at 37 C in 5-6% CO2 incubator. The cellular content of alkaline phosphatase activity is determined by the method of Reddi and Huggins (Reddi, A. H., and Huggins, C. B (1972) Proc. Natl. Acad. Sci. USA 69, 1601-1605). Enzyme estimations are performed in 96 well plates. Following removal of culture medium, cells are washed with pre-warmed PBS (150 ul) and incubated in 100 ul of pre-warmed 1% Triton X-100 for 30 minutes at 37 C. Plates are centrifuged for 10 minutes at full speed, and recovered samples (15 ul) are assayed for enzyme activity by adding 90 ul p-nitrophenyl phosphate (Sigma) as a substrate in 0.05 M glycine-NaOH buffer, pH 9.3 and incubating for 20 minutes at 37 C. The reaction is stopped by adding 75 ul of 0.2 N NaOH/well and absorbance at 405/490 nm is measured on a Dynatech MR 700 plate reader. Results are expressed as relative activities compared to a BMP-7 standard.

[2] = test system: synovial membrane-derived mesenchymal stem cells; assay: Chondrogenic differentiation, extracellular matrix deposition by alcian blue staining; format: cell-based
Source text: Influence of compounds SEQ ID NO 16, 33, 45, 217, 221 on chondrogenic differentiation of synovial membrane-derived mesenchymal stem cells leading to increased extracellular matrix deposition as determined by alcian blue staining. SEQ ID NO:16, 33, 45, 217, and 221 correspond to Compounds E, A, C, B, and D, respectively.
TDFRP compounds can be used to in the prophylaxis or treatment of diseases of the oral cavity, e.g., by affecting direct capping of bioactive molecules, or inducing the formation of reparative dentin and coronal or radicular pulp mineralization (Goldberg et al., Am J. Dent. 2003 February; 16(1):66-76). Further, TDFRP can be used in the prophylaxis or treatment of periodontal disease. […] TDFRP compounds can be used in the prophylaxis or treatment of traumatic brain injury, e.g., stroke, see, e.g., Cairns and Finkelstein, Phys Med Rehabil Clin N Am. 2003 February; 14(1 Suppl):S135-42). Intravenous administration of BMP-7 after ischemia improves motor function in stroke rats (Chang et al., Stroke. 2003 February; 34(2):558-64) and the TDFRP compounds may protect against or repair reperfusion injury. […] Thrasos compounds that bind to ALK3, a type I receptor for BMP, are therefore analyzed to examine if they induce chondrogenic differentiation leading to extra cellular matrix deposition in synovial membrane-derived mesenchymal stem cells. […]

[3] = test system: rat after ligation of the coronary artery; assay: LAD occlusion model of myocardial injury (ischemia/reperfusion); format: in vivo; settings: day 7; compound 10 mg/kg i.v., rhmBMP-7 160 μg/kg i.v.
Description: The efficacy of compound SEQ ID #45 in ameliorating the effects of myocardial ischemia was investigated in the rat after ligation of the coronary artery. […] unmanipulated rats, sorted into two large groups by initial body weight (>300 g pre-surgery) were evaluated. Fourteen rats underwent surgery on week, 12 rats underwent surgery on week 2 and rats were sorted into 3 treatment groups: Group 1, PBS; Group 2, positive control TDF-1; Group 3, test article SEQ ID #45 (see Table X).
Three days prior to surgery, a serum sample was collected from the tail vein of each rat (pre-bleed). On the day of surgery, each rat was administered compound intravenously 2 hr prior to surgery. Surgery was performed sequentially after intubation and ventilation with 0.5% isofluorane anesthetic. Lead II ECG was monitored throughout the surgery. A thoracotomy was performed and the main left coronary artery was occluded for 20 min using a snare technique (FIG. 16). Successful occlusion of the artery was confirmed by ST elevation in lead II ECG within the first 5 minutes of ligation, and by frequent ventricular arrhythmia after 10 minutes of ligation. The snare was released to restore blood flow. The original suture loop was left in place for subsequent re-occlusion on Day 7. After initiation of reperfusion, the chest cavity was closed with 2 layers of suture. Rats were weaned from the ventilator and observed until fully conscious and mobile. Antibiotic (QD) and analgesic (Q8D) were provided. Additional serum samples were collected 6, 24, 72 and 120 hours post occlusion. Additional compound, positive control or vehicle treatments were delivered by intravenous injection in the tail vein at 24, 72 and 120 hours post occlusion.
On Day 7, each rat was anesthetized (ketamine:xyline), the chest cavity re-opened and a terminal blood sample (1 ml) was withdrawn from the abdominal vein. Gross pathology (i.e. inflammation) was noted and graded on a 4 point inflammation scale: 0=no inflammation, 1=slight, 2=moderate, 3=severe and 4=complete pericarditis. The left coronary artery was then re-occluded using the existing stitch and a concentrated solution of Evans Blue dye in saline (20 mg/ml; 0.5 ml/rat) was injected into the heart apex to stain the non-ischemic cardiac tissue blue. The heart was then arrested by injection of a saturated solution of potassium chloride into the right ventricle. The heart was then excised, wrapped in cellophane and stored at −20° C. for 1.5 hour. The cold heart was cut into 10 cross-sectional slices (2 mm/slice) and each section was numbered and incubated separately in triphenyltetrazolium chloride (1% TTC in PBS) for 10 minutes at 37° C. prior to fixing in 4% formaldehyde. Subsequently, each slice was photographed. For each slice, the “area at risk (AR)” and the “area occupied by necrosis (AN)” were measured by morphometry. The ratio of AN to AR is a measure of the degree of damage resulting from the occlusion (FIG. 17A-FIG. 17B).

[4] = test system: TGF-beta1 induced EMT in epithelial cells; settings: 100 ng/ml for 48 hours; cited from earlier work
[5] = test system: mouse model of nephrotoxic serum nephritis; settings: cited from earlier work

Row | Molecule | induction of alkaline phosphatase activity [1] | deposition of the extracellular matrix [2] | also measured
1 | CYFDDSSKVICKKYRS [SEQ ID NO 130] | did not induce alkaline phosphatase activity |  | 
2 | CIVNSSDDFLCKKYRS [SEQ ID NO 16] |  | significantly increased the deposition of the extracellular matrix | 
3 | CYFDDSSQVLCKKYRS [SEQ ID NO 65] | did not induce alkaline phosphatase activity |  | 
4 | CYFNDSSQVLCKRYRS [SEQ ID NO 221] | did not induce alkaline phosphatase activity | significantly increased the deposition of the extracellular matrix | 
5 | B1 |  |  | reduction in AN/AR ratio as compared to PBS-treated animals [3]: 7%; reversal of TGF-beta1 induced EMT [4]: reverses TGF-beta1 induced EMT; progression to chronic renal disease ([5]; about 300 micrograms/kg, starting after one week of NTN): sufficient to prevent progression to chronic renal disease; renal pathology ([5]; treatment from week 3 through week 6 and from week 4 through week 6): almost completely reversed renal pathology
